Earlier results on one compound are cited in US7745665B2, “Substituted phenethylamines” (Auspex Pharmaceuticals, Inc., priority 2007, dated 2010).

The conditions of the data set: oxidation of the methylene group alpha to the nitrogen; humans.

As for `CNC[C@H](O)c1cccc(O)c1` [Phenylephrine, (R)-3-(1-hydroxy-2-methylamino-ethyl)-phenol], the “hydroxymandelic acid metabolite as share of the recovered mass balance” value is “more than 50%”.
